≈ marks a conversion by molar mass, not a printed value.
Key:
[1] = Solubility (physicochemical properties); conditions: for Solubility in methanol, dimethyl sulfoxide (DMSO), and chloroform: organic solvents
Saprolegnia parasitica = assay: Antimicrobial activity against eukaryotic microorganisms, 96-well microplate (MIC); format: cell-based; conditions: GY medium, 18° C., 24 hours
Procedure: (§1) The activity against eukaryotic microorganisms was measured with a 96-well microplate in the following manner. Compound (I-1), (I0-B), (I0-C), (I0-D), or (I-2) was suspended in 8% methanol water to prepare a sample suspension having a concentration of 4000, 2000, 1000, 500, 250, 125, 62.5, 32, 16, 8, or 4 μg/mL. Pyceze was diluted with water to prepare Pyceze aqueous solutions having the above concentrations. 50 μl of each of the sample solutions having the above concentrations, 50 μl of sterilized 4-fold concentrated liquid medium, and 100 μl of spore suspension or bacterial suspension of the test organisms prepared beforehand were poured in each well of the 96-well microplate. The experiments were performed in duplicate. […] The test organisms and the culture conditions were as follows.
Saprolegnia parasitica: GY medium (glucose: 1%, yeast extract: 0.25%, pH: 6.5), 18° C., 24 hours;

Phoma sp. = assay: as above; format: cell-based; conditions: YPD medium, 30° C., 30 hours
Procedure: as §1
Phoma sp.: YPD medium (yeast extract: 1%, peptone: 2%, glucose: 2%, pH: 6.5), 30° C., 30 hours; and […]

Bacillus subtilis = assay: Activity against prokaryotic microorganisms, paper disc method on agar plate; format: cell-based; conditions: LB agar, 37° C. overnight, concentration of sample solution
Procedure: (§2) The activity against prokaryotic microorganisms was measured by the paper disc method on an agar plate medium into which test organisms were kneaded. Staphylococcus aureus, Bacillus subtilis, or Escherichia coli was inoculated in 3 mL of sterilized LB medium (glucose: 0.5%, polypeptone: 1%, yeast extract: 0.5%, NaCl: 0.5%, pH: 7.2) in a test tube, and cultured at 37° C. overnight. The pre-culture solution (1%) was inoculated in a sterilized LB agar medium (agar: 1.5%) to prepare an agar assay plate. Compound (I-1) or (I-2) was dissolved in methanol to prepare a sample solution having a concentration of 1000, 500, 250, 125, 62.5, 32, 16, 8, 4, 2, or 1 μg/mL. The sample solution was infiltrated into a paper disc (ADVANTEC, diameter: 8 mm, thick), followed by air-drying. The paper disc was placed on the agar assay plate, and cultured at 37° C. overnight.

Escherichia coli = assay: as above; format: cell-based; conditions: LB agar, 37° C. overnight
Procedure: as §2

Staphylococcus aureus = assay: as above; format: cell-based; conditions: LB agar, 37° C. overnight, concentration of sample solution
Procedure: as §2

[2] = test system: water flea (Daphnia pulex); assay: Water flea swimming ability inhibitory activity test; format: in vivo; conditions: 24 hours incubation, 20° C.; probit method
Procedure: The number of water fleas was adjusted so that each 10 mL of aerated water contained 5 fleas. The water fleas were all 24 hours old after birth or younger. The aerated water was prepared by aerating tap water, which had been filtered by a water cleaner, for at least 24 hours. A sample solution obtained by dissolving Compound (I-1) or (I-2) in methanol, or a Pyceze aqueous solution obtained by diluting Pyceze with water, was added to the water flea breeding water under stirring so that the final concentration of the sample or Pyceze became 100, 10, 1, 0.1, or 0.01 μg/mL. After incubation for 24 hours (20° C., 17 μmol photons/m^2/s, Light:Dark=16:8), the number of water fleas swimming in the breeding water was counted. The water fleas were divided into multiple groups, each consisting of 5 fleas. Using 2 groups each, an experiment was performed with the test liquids having the aforementioned different final concentrations. From the obtained results, IC50 values were calculated according to the probit method using SPSS statistical software.

edible oysters = conditions: cited from earlier work
water fleas = conditions: cited from earlier work
green algae = conditions: cited from earlier work

SMILES | Solubility in methanol, dimethyl sulfoxide (DMSO), and chloroform [1] | Solubility in water [1] | minimum inhibitory concentration (MIC) with respect to Saprolegnia parasitica (Saprolegnia parasitica) [µg/mL] | MIC with respect to Phoma sp. (Phoma sp.) [µg/mL] | minimum inhibitory concentration with respect to Bacillus subtilis (Bacillus subtilis) [µg/mL] | inhibition ring formation for Escherichia coli (Escherichia coli) | minimum inhibitory concentration with respect to Staphylococcus aureus (Staphylococcus aureus) [µg/mL] | 50% swimming ability inhibitory concentration with respect to water flea (Daphnia pulex) [2] [µg/mL] | EC50 (toxicity) in edible oysters (edible oysters) [µg/mL] | EC50 (toxicity) in water fleas (water fleas) [µg/mL] | EC50 (toxicity) in green algae (green algae) [µg/mL]
CC1OC(OC2C(O)CC(c3ccc4c(c3O)C(=O)C3=C(C4=O)C4(O)C(=O)CC(C)(OC5C=CC(=O)C(C)O5)CC4(O)C=C3)OC2C)C=CC1=O (centres unmarked) [Compound I0-A] | Soluble | Slightly soluble |  |  |  |  |  |  |  |  | 
CC1OC(OC2CCC(OC3C(O)CC(c4ccc5c(c4O)C(=O)C4=C(C5=O)C5(O)C(=O)CC(C)(OC6CCC(=O)C(C)O6)CC5(O)C=C4)OC3C)OC2C)C=CC1=O (centres unmarked) [Compound I0-D] | Soluble | Slightly soluble | 1 | 500 | 62.5 | an inhibition ring was not observed | 62.5 |  |  |  | 
CC1OC(OC2CCC(OC3C(O)CC(c4ccc5c(c4O)C(=O)C4=C(C5=O)C5(O)C(=O)CC(C)(OC6C=CC(=O)C(C)O6)CC5(O)C=C4)OC3C)OC2C)C=CC1=O (centres unmarked) [Compound I0-E] | Soluble | Slightly soluble |  |  |  |  |  |  |  |  | 
CC1OC(OC2C(O)CC(c3ccc4c(c3O)C(=O)C3=C(C4=O)C4(O)C(=O)CC(C)(OC5C=CC(=O)C(C)O5)CC4(O)C=C3)OC2C)C=CC1=O (centres unmarked) [Compound I-1] |  |  | 0.0039 | 500 | 62.5 | an inhibition ring was not observed | 31.2 | 2.58 |  |  | 
CC1OC(OC2CCC(OC3C(O)CC(c4ccc5c(c4O)C(=O)C4=C(C5=O)C5(O)C(=O)CC(C)(OC6C=CC(=O)C(C)O6)CC5(O)C=C4)OC3C)OC2C)C=CC1=O (centres unmarked) [Compound I-2] |  |  | 0.0078 | 500 | 8.0 | an inhibition ring was not observed | 16.0 | 4.48 |  |  | 
O=[N+]([O-])C(Br)(CO)CO [bronopol] |  |  |  |  |  |  |  |  | 0.77 (≈ 3.85 µM) | 1.4 (≈ 7 µM) | 0.0537 (≈ 0.269 µM)
